Data published in ChEMBL document CHEMBL1155712, “Cytotoxic polyacetylenes from the twigs of Ochanostachys amentacea” (2001).
In brackets after ≈: the same amount, converted by molar mass.

Assays:
Type in all cases: functional
Conditions in all cases: read-out: ED50 (the source's name)
M109 = assay: Cytotoxicity against mouse M109 cells
SK-N-SH = assay: Cytotoxicity against human SK-N-SH cells
Col2 = assay: Cytotoxicity against human Col2 cells
Lu1 = assay: Cytotoxicity against human Lu1 cells
SW626 = assay: Cytotoxicity against human SW626 cells
LNCaP = assay: Cytotoxicity against human LNCAP cells
KB [1] = assay: Cytotoxicity against multidrug-resistant human KB cells in absence of vinblastine
KB [2] = assay: Cytotoxicity against multidrug-resistant human KB cells in presence of vinblastine
[3] = Cytotoxicity against human BC1 cells
KB [4] = assay: Cytotoxicity against human KB cells
P388 = assay: Cytotoxicity against mouse P388 cells

Compound `C[C@H](O)/C=C/C#CC#CC#CCCCCCCCC(=O)O` has an EC50 (M109) of 5.4 µg/mL (≈ 18.9 µM), an EC50 (SK-N-SH) of 3.7 µg/mL (≈ 12.9 µM) and an EC50 (Col2) of 9.9 µg/mL (≈ 34.6 µM). It also gave an EC50 (Lu1) of over 20 µg/mL, an EC50 (SW626) of 0.36 µg/mL (≈ 1.26 µM) and an EC50 (LNCaP) of 0.3 µg/mL (≈ 1.05 µM). It also gave an EC50 (KB [1]) of over 20 µg/mL, an EC50 (KB [2]) of over 20 µg/mL and an EC50 [3] of over 20 µg/mL. It also gave an EC50 (KB [4]) of 1.1 µg/mL (≈ 3.84 µM).

`O=C(O)CCCCCCCC#CC#CC#CC#CC(O)CO` (single isomer, unassigned) gave an EC50 (M109) of 10.1 µg/mL (≈ 33.6 µM), an EC50 (SK-N-SH) of 6.7 µg/mL (≈ 22.3 µM) and an EC50 (Col2) of over 20 µg/mL. The EC50 (Lu1) was 14.6 µg/mL (≈ 48.6 µM), the EC50 (SW626) was 19.4 µg/mL (≈ 64.6 µM) and the EC50 (LNCaP) was 9.2 µg/mL (≈ 30.6 µM). It also gave an EC50 (KB [1]) of 13.4 µg/mL (≈ 44.6 µM), an EC50 (KB [2]) of 11.9 µg/mL and an EC50 [3] of over 20 µg/mL. For the same compound, the EC50 (KB [4]) was 2.6 µg/mL (≈ 8.66 µM).

In the case of `C[C@H](O)C#CC#CC#CC#CCCCCCCCC(=O)O` [MINQUARTYNOIC ACID], the EC50 (M109) is reported as 3.7 µg/mL (≈ 13 µM), the EC50 (SK-N-SH) is reported as 1.4 µg/mL (≈ 4.92 µM) and the EC50 (Col2) is reported as 5.5 µg/mL (≈ 19.3 µM). For the same compound, the EC50 (Lu1) was 4.1 µg/mL (≈ 14.4 µM), the EC50 (SW626) was 4.1 µg/mL (≈ 14.4 µM) and the EC50 (LNCaP) was 1.6 µg/mL (≈ 5.63 µM). The EC50 (KB [1]) was 4.3 µg/mL (≈ 15.1 µM), the EC50 (KB [2]) was 2.8 µg/mL and the EC50 [3] was 3.5 µg/mL (≈ 12.3 µM). It also gave an EC50 (P388) of 0.18 µg/mL (≈ 0.633 µM) and an EC50 (KB [4]) of 3.7 µg/mL (≈ 13 µM).
